Some results are limits rather than exact numbers.

What all share (type): cell-based
The subject of one test is HCC827 cells. In words: Cell growth inhibition (CellTiter-Glo), HCC827. To be noted: Homo sapiens, 72 h, 3 days. The procedure, abridged:
(§1)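 Readout was CellTiter-Glo luminescence after 3-day compound treatment at 37° C. Cells were seeded at 5000/well the previous night: HCC827 in RPMI/10% FBS, A431 in DMEM/10% FBS.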
On the technique in general: ATP-based viability assays read luminescence as a measure of living cells.

For test [1], the system named is HCC827-SVD cells (human EGFR exon 20 insertion mutant D770_N771insSVD). Nature of the test: Cell growth inhibition (CellTiter-Glo), HCC827-SVD. To be noted: 72 h, 3 days. The procedure, abridged: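 Growth read by CellTiter-Glo luminescence after 3-day compound exposure at 37 °C. Engineered clonal HCC827 line (native EGFR deleted by CRISPR, mutant EGFR re-expressed) plated at 5000 cells/well in 10% FBS RPMI the night before dosing.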

Test [2] relates to HCC827-ASV cells (human EGFR exon 20 insertion mutant V769_D770insASV). Nature of the test: Cell growth inhibition (CellTiter-Glo), HCC827-ASV. To be noted: 72 h, HCC827-ASV cells, 3 days, CellTiter-Glo, read-out: Cell growth inhibition, GI50 (nM) HCC827-ASV. Here is the method:
Generation of HCC827-SVD, HCC827-ASV, and HCC827-YVMA cell lines. The HCC827-SVD cell line was generated by first transducing HCC827 cells (ATCC) with lentiviral particles expressing codon-optimized human EGFR exon 20 insertion mutant D770_N771insSVD, and then selecting under 5 µg/mL puromycin treatment for a week. The resulting cells were further transduced with lentiviral particles carrying EGFR sgRNA and CAS9 to knockout the endogenous alleles of EGER and then selected under 500 µg/mL hygromycin B treatment for two weeks. The limiting dilution approach was used to subsequently generate the single clone of the HCC827-SVD stable cell line. Endogenous EGFR knockout was confirmed by Sanger sequencing of cell genomic DNA, and expression of exogenous mutant EGFR was verified by Western blot analysis.
HCC827-ASV and HCC827-YVMA cell lines were generated in a similar approach as HCC827-SVD, except that HCC827 cells (ATCC) were first transduced with lentiviral particles expressing codon-optimized human EGFR exon 20 insertion mutant V769_D770insASV and human ERBB2 exon20 insertion mutant A775_G776ins YVMA, respectively.
2. Cell Growth Inhibition for HCC827, HCC827-SVD, HCC827-ASV, HCC827-YVMA, and A431.
HCC827(ATCC), HCC827-SVD, HCC827-ASV, and HCC827-YVMA cells were seeded in 96-well plates at 5000 cells/well in 90 μL of RPMI growth medium containing 10% FBS and 1% Penicillin Streptomycin. A431 (ATCC) cells were seeded in 96-well plates at 5000 cells/well in 90 μL of DMEM growth medium containing 10% FBS and 1% Penicillin Streptomycin. Cells were incubated at 37° C. overnight and then administered with 10 μL 10× test compounds prepared in the growth medium at various concentrations. After administration of the compounds, cells were incubated at 37° C. for 3 days. Before the CellTiter-Glo assay, the plates were equilibrated at room temperature for approximately 30 minutes. 100 ul of CellTiter-Glo reagent (Promega) was added to each well. The plates were then incubated at room temperature for 10 minutes and luminescence was recorded by the EnSight® multimode plate reader (PerkinElmer). Table 7 listed selected compounds in cellular growth assay.

In test [3] the test system is HCC827-YVMA cells (human ERBB2 exon20 insertion mutant A775_G776ins YVMA). In words: Cell growth inhibition (CellTiter-Glo), HCC827-YVMA. To be noted: 72 h, HCC827-YVMA cells, 3 days, CellTiter-Glo, read-out: Cell growth inhibition, GI50 (nM) HCC827-YVMA. The method, boiled down:
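Growth in RPMI with 10% FBS was measured by CellTiter-Glo luminescence after 3 days at 37 °C with test compounds across a concentration range. The single-clone HCC827 lines carry a lentiviral YVMA (ERBB2) or ASV (EGFR) exon 20 insertion, with endogenous EGFR removed via sgRNA/Cas9.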

The next test relates to A431 cells. Nature of the test: Cell growth inhibition (CellTiter-Glo), A431. To be noted: Homo sapiens, A-431, 72 h, 3 days. The method, boiled down: as §1

Usually GI50 stands for the concentration that inhibits growth by half. For `C=CC(=O)N1CCC(c2n[nH]c3ncnc(Nc4ccc(Oc5ccnc(N6C[C@@H](C)O[C@@H](C)C6)c5)cc4F)c23)CC1` [Compound 167, 1-(4-(4-((4-((2-((2R,6S)-2,6-dimethylmorpholino)pyridin-4-yl)oxy)-2-fluorophenyl)amino)-1H-pyrazolo[3,4-d]pyrimidin-3-yl)piperidin-1-yl)prop-2-en-1-one], the GI50 in the test on HCC827 cells is greater than 1000 nM; in test [1], 50 to 200 nM; in test [2], 50 to 200 nM; in test [3], 50 to 200 nM; in the test with A431 cells, greater than 1000 nM.

As for `C=CC(=O)N1CCC(c2n[nH]c3ncnc(Nc4ccc(Oc5ccnc(N6CCC(C(F)(F)F)C6)c5)cc4F)c23)CC1` (centres unmarked) [Compound 173, 1-(4-(4-((2-fluoro-4-((2-(3-(trifluoromethyl)pyrrolidin-1-yl)pyridin-4-yl)oxy)phenyl)amino)-1H-pyrazolo[3,4-d]pyrimidin-3-yl)piperidin-1-yl)prop-2-en-1-one], the GI50 was 200 to 1000 nM with HCC827 cells; 50 to 200 nM in test [1]; less than 50 nM in test [2]; less than 50 nM in test [3]; greater than 1000 nM in the test on A431 cells.

For the molecule `C=CC(=O)N1CCC(c2n[nH]c3ncnc(Nc4ccc(Oc5ccnc(N6CCC(F)(F)C6)c5)cc4F)c23)CC1` [Compound 175, 1-(4-(4-((4-((2-(3,3-difluoropyrrolidin-1-yl)pyridin-4-yl)oxy)-2-fluorophenyl)amino)-1H-pyrazolo[3,4-d]pyrimidin-3-yl)piperidin-1-yl)prop-2-en-1-one], the GI50 is greater than 1000 nM with HCC827 cells; 50 to 200 nM in test [1]; 50 to 200 nM in test [2]; 50 to 200 nM in test [3]; greater than 1000 nM in the test on A431 cells.

As to `C=CC(=O)N1CCC(c2n[nH]c3ncnc(Nc4ccc(Oc5ccnc(N6CC(O)(C(F)(F)F)C6)c5)cc4F)c23)CC1` [Compound 177, 1-(4-(4-((2-fluoro-4-((2-(3-hydroxy-3-(trifluoromethyl)azetidin-1-yl)pyridin-4-yl)oxy)phenyl)amino)-1H-pyrazolo[3,4-d]pyrimidin-3-yl)piperidin-1-yl)prop-2-en-1-one], the GI50 was greater than 1000 nM in the test on HCC827 cells; 200 to 1000 nM in test [1]; 200 to 1000 nM in test [2]; 50 to 200 nM in test [3]; greater than 1000 nM with A431 cells.

On to `C=CC(=O)N1CCC(c2n[nH]c3ncnc(Nc4ccc(Oc5ccnc(N6CC7CC7C6)c5)cc4F)c23)CC1` (centres unmarked) [Compound 180, 1-(4-(4-((4-((2-(3-azabicyclo[3.1.0]hexan-3-yl)pyridin-4-yl)oxy)-2-fluorophenyl)amino)-1H-pyrazolo[3,4-d]pyrimidin-3-yl)piperidin-1-yl)prop-2-en-1-one], for which the GI50 was 200 to 1000 nM in the test with HCC827 cells; 50 to 200 nM in test [1]; 50 to 200 nM in test [2]; less than 50 nM in test [3]; greater than 1000 nM in the test on A431 cells.

Regarding `C=CC(=O)N1CCC(c2ccn3ncnc(Nc4ccc(Oc5ccn(Cc6cc(C)ccn6)n5)cc4F)c23)CC1` [Compound 197, 1-(4-(4-((2-fluoro-4-((1-((4-methylpyridin-2-yl)methyl)-1H-pyrazol-3-yl)oxy)phenyl)amino)pyrrolo[2,1-f][1,2,4]triazin-5-yl)piperidin-1-yl)prop-2-en-1-one], the GI50 in the test with HCC827 cells was greater than 1000 nM; in test [1], greater than 1000 nM; in test [2] it was greater than 1000 nM; in test [3], 200 to 1000 nM; with A431 cells, greater than 1000 nM.

As to `C=CC(=O)N1CCC(c2ccn3ncnc(Nc4ccc(OCc5ccccn5)c(Cl)c4)c23)CC1` [Compound 198, 1-(4-(4-((3-chloro-4-(pyridin-2-ylmethoxy)phenyl)amino)pyrrolo[2,1-f][1,2,4]triazin-5-yl)piperidin-1-yl)prop-2-en-1-one], the GI50 (in the test on HCC827 cells; in test [1]; in test [2]; in test [3]; in the test on A431 cells) was less than 50 nM throughout.

On to `C=CC(=O)N1CCC(c2ccn3ncnc(Nc4ccc(Oc5ccnc(N6C[C@@H](C)O[C@@H](C)C6)c5)cc4F)c23)CC1` [Compound 199, 1-(4-(4-((4-((2-((2R,6S)-2,6-dimethylmorpholino)pyridin-4-yl)oxy)-2-fluorophenyl)amino)pyrrolo[2,1-f][1,2,4]triazin-5-yl)piperidin-1-yl)prop-2-en-1-one], for which the GI50 is 50 to 200 nM in the test with HCC827 cells; less than 50 nM in test [1]; less than 50 nM in test [2]; less than 50 nM in test [3]; greater than 1000 nM in the test with A431 cells.

As for `C=CC(=O)N1CCC(c2ccn3ncnc(Nc4ccc(Oc5ccnc(N6CCN(C)CC6)c5)cc4F)c23)CC1` [Compound 201, 1-(4-(4-((2-fluoro-4-((2-(4-methylpiperazin-1-yl)pyridin-4-yl)oxy)phenyl)amino)pyrrolo[2,1-f][1,2,4]triazin-5-yl)piperidin-1-yl)prop-2-en-1-one], the GI50 with HCC827 cells is greater than 1000 nM; in test [1], greater than 1000 nM; in test [2], greater than 1000 nM; in test [3], 200 to 1000 nM; with A431 cells, greater than 1000 nM.

As to `C=CC(=O)N1CCC(c2ccn3ncnc(Nc4ccc(Oc5ccnc(N6CCC[C@@H](OC)C6)c5)cc4F)c23)CC1` [Compound 202, (R)-1-(4-(4-((2-fluoro-4-((2-(3-methoxypiperidin-1-yl)pyridin-4-yl)oxy)phenyl)amino)pyrrolo[2,1-f][1,2,4]triazin-5-yl)piperidin-1-yl)prop-2-en-1-one], the GI50 in the test with HCC827 cells was greater than 1000 nM; in test [1], 50 to 200 nM; in test [2], 200 to 1000 nM; in test [3], 50 to 200 nM; in the test with A431 cells it was greater than 1000 nM.

Source of the values: US20240059698A1 (Accutar Biotechnology Inc., priority 2022, published 2024).
